Measured values reported in patent US20220267352A1, “RAPAMYCIN ANALOGS AND USES THEREOF” (Anakuria Therapeutics, Inc., priority 2021, published 2022).

Columns and labels:
Type in all cases: cell-based
[1] = test system: p-p70 S6 Kinase (Thr389) in MCF-7 cells; assay: AlphaLISA Ultra pS6K1 assay; conditions: Homo sapiens, 1.5 h; MCF7 cells, 90 min
Outline: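 Phospho-S6K1 (Thr389) quantified by AlphaLISA Ultra read-out (2 h acceptor, then 2 h donor beads) in lysates of MCF-7 cells. Cells were plated 20–24 h before, refed 2 h, exposed to compounds for 90 min at 0.5% final DMSO, and lysates stored at −80 °C.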

[2] = test system: pS6K1 T389 and pAkt S473 in PC3 cells; assay: Western blot based pS6K1 and pAKT assay at 24 and 48 hour timepoints
Experimental: Example 57: Western Blot Based pS6K1 and pAKT Assay at 24 and 48 Hour Timepoints
Assay Protocol: • 1. Seed six well plate with 500,000 PC3 cells per well and incubate for 20˜24 hour. • 2. Add compounds into the cell plate. Incubate for 24 to 48 hours. • 4. Plate is placed on ice and the media is removed via aspiration. The wells are washed with 1 mL of 1x PBS and then fully aspirated. • 5. 110 μL of 1% Triton Lysis Buffer is added and each well is scraped vigorously. • 6. Cell homogenates are transferred to 1.5 mL eppendorf tubes on ice and spun down at 4° C. for 10 minutes at 10,000 rpm. • 7. Protein concentration of resulting cell lysates were quantified utilizing a Bradford assay and the samples run analyzed via Western blot on 4-12% Bis/Tris gels with 1×MES buffer. • 8. The gels were transferred onto membranes at 50V for 100 minutes, blocked with Odyssey Blocking buffer for 30 minutes then incubated overnight with primary antibody (pS6K1 T389 Rabbit or pAkt S473 Rabbit) overnight at 4° C. on a rotator. • 9. The membranes were washed 3× with TBS-T with a 5 minute incubation between each wash then incubated with secondary antibody (LiCor IRDye 800 Donkey Anti Rabbit) for at least 30 minutes. • 10. The membranes were washed 3× with TBS-T with a 5 minute incubation between each wash. • 11. The gels were then incubated for 5 minutes with PBS at room temperature then imaged using a Li-Cor.
Compounds that are not selective by comparing pS6K1 and pAKT IC50 by kinase assays are indicated by “NO” in the “mTORC1 selective @ 90 min” column of Table 4. […] Compounds that are not selective at the 24 hrs mark are indicated by “NO” in the “mTORC1 selective @ 24 hrs” column of Table 4. “N/A” stands for “not assayed” and “N/C” stands for “not calculated”.

[3] = test system: p-Akt 1/2/3 (Ser473) in MCF-7 cells; assay: AlphaLISA Ultra pAKT assay; conditions: Homo sapiens, 1.5 h; MCF7 cells, 90 min
Outline: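 MCF-7 cells (16,000˜20,000 per well in 36 μL medium) were seeded in Corning 3701 plates for 20˜24 hour, refreshed with new medium for 90 minutes, then given 12 μL of 4× compound (0.5% final DMSO). Cells were lysed with 2× lysis buffer, and lysate was analyzed by AlphaLISA Ultra pAKT using acceptor and donor beads, read on an EnSpire reader.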

mTORC1 over mTORC2 = mTORC1 over mTORC2 selectivity by comparing pS6K1 and pAKT IC50; conditions: by comparing pS6K1 and pAKT IC50, 90 min
Outline: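 MCF-7 cells were treated with compounds (0.5% final DMSO) for 90 minutes in one protocol and 2 hours in the other, then lysed. Phospho-signal in lysates was read by bead-based donor/acceptor proximity assay. pS6K1 and pAKT IC50 values were compared to judge mTORC1 over mTORC2 selectivity, at 90 min and at 24 hrs.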

SMILES	IC50 [1] [nM]	IC50 [3] [nM]	mTORC1 selective @ 24 hrs [2]	mTORC1 selective @ 90 min (mTORC1 over mTORC2)
CO[C@@H]1C[C@H](C[C@@H](C)[C@@H]2CC(=O)[C@H](C)/C=C(\C)[C@@H](O)[C@@H](OC)C(=O)[C@H](C)C[C@H](C)/C=C/C=C/C=C(\C)[C@@H](OCCOC3COC3)C[C@@H]3CC[C@@H](C)[C@@](O)(O3)C(=O)C(=O)N3CCCC[C@H]3C(=O)O2)CC[C@H]1OC(=O)N(C)CCN1CCOCC1 [I-18, [(43S,45R,47R)-4-[(2R)-2-[(28E,30E,32E,33E,39R,40S,41R,42R,44S,46S,48S,49S,51R,52R,62R)-51,62-dihydroxy-52-methoxy-39,40,41,42,53,54-hexamethyl-48-[2-(oxetan-3-yloxy)ethoxy]-55,56,57,58,59-pentaoxo-76,77-dioxa-64-azatricyclohexatriaconta-28,30,32(53),33(54)-tetraen-49-yl]propyl]-47-methoxy-45-cyclohexyl] N-methyl-N-(2-morpholinoethyl)carbamate]			Yes	
CO[C@@H]1/C(C)=C/[C@@H](C)C(=O)C[C@@H]([C@H](C)C[C@@H]2CC[C@@H](OP(C)(C)=O)[C@H](OC)C2)OC(=O)[C@@H]2CCCCN2C(=O)C(=O)[C@]2(O)O[C@@H](CC[C@H]2C)C[C@H](OCCOC2CCOCC2)/C(C)=C/C=C/C=C/[C@@H](C)C[C@@H](C)C(=O)[C@@H]1OC [I-55, (1R,9S,12S,15R,16E,18R,19R,21R,23S,24E,26E,28E,30S,32S,35R)-12-[(1R)-2-[(1S,3R,4R)-4-dimethylphosphoryloxy-3-methoxy-cyclohexyl]-1-methyl-ethyl]-1-hydroxy-18,19-dimethoxy-15,17,21,23,29,35-hexamethyl-30-(2-tetrahydropyran-4-yloxyethoxy)-11,36-dioxa-4-azatricyclo[30.3.1.0^4,9]hexatriaconta-16,24,26,28-tetraene-2,3,10,14,20-pentone]			No	
COCCO[C@@H]1CC[C@@H](C[C@@H](C)[C@@H]2CC(=O)[C@H](C)/C=C(\C)[C@@H](O)[C@@H](OC)C(=O)[C@H](C)C[C@H](C)/C=C/C=C/C=C(\C)[C@@H](OCc3cnccn3)C[C@@H]3CC[C@@H](C)[C@@](O)(O3)C(=O)C(=O)N3CCCC[C@H]3C(=O)O2)C[C@H]1OC [I-57, (1R,9S,12S,15R,16E,18R,19R,21R,23S,24E,26E,28E,30S,32S,35R)-1,18-dihydroxy-19-methoxy-12-[(1R)-2-[(1S,3R,4R)-3-methoxy-4-(2-methoxyethoxy)cyclohexyl]-1-methyl-ethyl]-15,17,21,23,29,35-hexamethyl-30-(pyrazin-2-ylmethoxy)-11,36-dioxa-4-azatricyclo[30.3.1.0^4,9]hexatriaconta-16,24,26,28-tetraene-2,3,10,14,20-pentone]			Yes	
CO[C@@H]1C[C@H](C[C@@H](C)[C@@H]2CC(=O)[C@H](C)/C=C(\C)[C@@H](O)[C@@H](OC)C(=O)[C@H](C)C[C@H](C)/C=C/C=C/C=C(\C)[C@@H](OCc3cnccn3)C[C@@H]3CC[C@@H](C)[C@@](O)(O3)C(=O)C(=O)N3CCCC[C@H]3C(=O)O2)CC[C@H]1OCCO [I-59, (1R,9S,12S,15R,16E,18R,19R,21R,23S,24E,26E,28E,30S,32S,35R)-1,18-dihydroxy-12-[(1R)-2-[(1S,3R,4R)-4-(2-hydroxyethoxy)-3-methoxy-cyclohexyl]-1-methyl-ethyl]-19-methoxy-15,17,21,23,29,35-hexamethyl-30-(pyrazin-2-ylmethoxy)-11,36-dioxa-4-azatricyclo[30.3.1.0^4,9]hexatriaconta-16,24,26,28-tetraene-2,3,10,14,20-pentone]			Yes	

Continued, in another order:

IC50 [1] [nM]	IC50 [3] [nM]	SMILES	mTORC1 selective @ 24 hrs [2]	mTORC1 selective @ 90 min (mTORC1 over mTORC2)
1 to 10		COCCOCCO[C@H]1C[C@@H]2CC[C@@H](C)[C@@](O)(O2)C(=O)C(=O)N2CCCC[C@H]2C(=O)O[C@H]([C@H](C)C[C@@H]2CC[C@@H](OC(F)F)[C@H](OC)C2)CC(=O)[C@H](C)/C=C(\C)[C@@H](O)[C@@H](OC)C(=O)[C@H](C)C[C@H](C)/C=C/C=C/C=C/1C [I-4, (22E,24E,26E,27E,33R,34S,35R,36R,38S,40S,42S,43S,44R,45R,55R)-43-[(1R)-2-[(1S,3R,4R)-4-(difluoromethoxy)-3-methoxy-cyclohexyl]-1-methyl-ethyl]-44,55-dihydroxy-45-methoxy-42-[2-(2-methoxyethoxy)ethoxy]-33,34,35,36,46,47-hexamethyl-64,65-dioxa-56-azatricyclohexatriaconta-22,24,26(46),27(47)-tetraene-48,49,50,51,52-pentone]	Yes	
1 to 10		CO[C@@H]1C[C@H](C[C@@H](C)[C@@H]2CC(=O)[C@H](C)/C=C(\C)[C@@H](O)[C@@H](OC)C(=O)[C@H](C)C[C@H](C)/C=C/C=C/C=C(\C)[C@@H](OCC3COCCO3)C[C@@H]3CC[C@@H](C)[C@@](O)(O3)C(=O)C(=O)N3CCCC[C@H]3C(=O)O2)CC[C@H]1OC(F)F (stereo partly drawn) [I-9, (24E,26E,28E,29E,32R,33S,34R,35R,37S,39S,41S,42S,44R,45R,55R)-42-[(1R)-2-[(1S,3R,4R)-4-(difluoromethoxy)-3-methoxy-cyclohexyl]-1-methyl-ethyl]-41-(1,4-dioxan-2-ylmethoxy)-44,55-dihydroxy-45-methoxy-32,33,34,35,46,47-hexamethyl-66,67-dioxa-56-azatricyclohexatriaconta-24,26,28(46),29(47)-tetraene-48,49,50,51,52-pentone]	Yes	
1 to 10	≥ 1000	CO[C@@H]1C[C@H](C[C@@H](C)[C@@H]2CC(=O)[C@H](C)/C=C(\C)[C@@H](O)[C@@H](OC)C(=O)[C@H](C)C[C@H](C)/C=C/C=C/C=C(\C)[C@@H](OCC3COCCO3)C[C@@H]3CC[C@@H](C)[C@@](O)(O3)C(=O)C(=O)N3CCCC[C@H]3C(=O)O2)CC[C@H]1OC(=O)NCCN1CCOCC1 (stereo partly drawn) [I-103, [(42S,44R,46R)-4-[(2R)-2-[(28E,30E,32E,33E,38R,39S,40R,41R,43S,45S,47S,48S,50R,51R,61R)-47-(1,4-dioxan-2-ylmethoxy)-50,61-dihydroxy-51-methoxy-38,39,40,41,52,53-hexamethyl-54,55,56,57,58-pentaoxo-76,77-dioxa-64-azatricyclohexatriaconta-28,30,32(52),33(53)-tetraen-48-yl]propyl]-46-methoxy-44-cyclohexyl] N-(2-morpholinoethyl)carbamate]		Yes
10 to 100	≥ 1000	CO[C@@H]1C[C@H](C[C@@H](C)[C@@H]2CC(=O)[C@H](C)/C=C(\C)[C@@H](O)[C@@H](OC)C(=O)[C@H](C)C[C@H](C)/C=C/C=C/C=C(\C)[C@H](OCCOC3COC3)C[C@@H]3CC[C@@H](C)[C@@](O)(O3)C(=O)C(=O)N3CCCC[C@H]3C(=O)O2)CC[C@H]1OC(F)F [I-104, (23E,25E,27E,28E,32R,33S,34R,35R,37S,39S,41R,42S,44R,45R,55R)-42-[(1R)-2-[(1S,3R,4R)-4-(difluoromethoxy)-3-methoxy-cyclohexyl]-1-methyl-ethyl]-44,55-dihydroxy-45-methoxy-32,33,34,35,46,47-hexamethyl-41-[2-(oxetan-3-yloxy)ethoxy]-65,66-dioxa-56-azatricyclohexatriaconta-23,25,27(46),28(47)-tetraene-48,49,50,51,52-pentone]		Yes
1 to 10	≥ 1000	CO[C@@H]1C[C@H](C[C@@H](C)[C@@H]2CC(=O)[C@H](C)/C=C(\C)[C@@H](O)[C@@H](OC)C(=O)[C@H](C)C[C@H](C)/C=C/C=C/C=C(\C)[C@@H](OCCOC3COC3)C[C@@H]3CC[C@@H](C)[C@@](O)(O3)C(=O)C(=O)N3CCCC[C@H]3C(=O)O2)CC[C@H]1OC(F)F [I-105, (23E,25E,27E,28E,32R,33S,34R,35R,37S,39S,41S,42S,44R,45R,55R)-42-[(1R)-2-[(1S,3R,4R)-4-(difluoromethoxy)-3-methoxy-cyclohexyl]-1-methyl-ethyl]-44,55-dihydroxy-45-methoxy-32,33,34,35,46,47-hexamethyl-41-[2-(oxetan-3-yloxy)ethoxy]-65,66-dioxa-56-azatricyclohexatriaconta-23,25,27(46),28(47)-tetraene-48,49,50,51,52-pentone]		Yes
